# Data as given in US20210070748A1, “INHIBITORS OF BRUTONS TYROSINE KINASE” (Pharmacyclics LLC, priority 2015, published 2021).
# How the values were obtained:
# Format in all cases: biochemical
# [1] = target: EGFR (Homo sapiens, UniProt P00533); assay: Inhibition of a panel of kinases, in vitro HotSpot kinase assay: EGFR; details: D-compounds panel data; 1 μM ATP
# Method: (§1) The degree of inhibition of a panel of kinases is determined using the in vitro HotSpot kinase assay (purified enzymes, ^33P-ATP, an appropriate substrate and 1 μM ATP).
# [2] = target: T1, TEC (Homo sapiens, UniProt P42680); assay: Inhibition of a panel of kinases, in vitro HotSpot kinase assay: TEC; details: D-compounds panel data; 1 μM ATP
# T1 sequence (P42680 1-631): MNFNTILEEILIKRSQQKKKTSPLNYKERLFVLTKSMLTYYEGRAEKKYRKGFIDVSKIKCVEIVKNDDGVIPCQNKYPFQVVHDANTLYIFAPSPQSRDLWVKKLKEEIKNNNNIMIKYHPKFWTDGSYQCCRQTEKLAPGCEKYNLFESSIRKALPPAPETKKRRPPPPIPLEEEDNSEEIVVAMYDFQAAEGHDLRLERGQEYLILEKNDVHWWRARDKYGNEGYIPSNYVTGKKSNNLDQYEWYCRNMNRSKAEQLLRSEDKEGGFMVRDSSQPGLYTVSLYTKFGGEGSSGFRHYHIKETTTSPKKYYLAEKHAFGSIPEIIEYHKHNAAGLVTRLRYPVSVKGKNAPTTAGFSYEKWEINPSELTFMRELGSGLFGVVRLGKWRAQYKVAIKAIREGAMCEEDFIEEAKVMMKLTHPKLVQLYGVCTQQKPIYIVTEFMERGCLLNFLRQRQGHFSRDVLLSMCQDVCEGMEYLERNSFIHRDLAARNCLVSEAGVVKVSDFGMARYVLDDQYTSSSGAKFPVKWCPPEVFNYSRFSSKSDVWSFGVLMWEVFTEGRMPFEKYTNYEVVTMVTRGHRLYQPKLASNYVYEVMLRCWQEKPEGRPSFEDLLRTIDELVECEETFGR
# Method: as §1
# [3] = target: T2, ITK (Homo sapiens, UniProt Q08881); assay: Inhibition of a panel of kinases, in vitro HotSpot kinase assay: ITK; details: D-compounds panel data; 1 μM ATP
# T2 sequence (Q08881 1-620): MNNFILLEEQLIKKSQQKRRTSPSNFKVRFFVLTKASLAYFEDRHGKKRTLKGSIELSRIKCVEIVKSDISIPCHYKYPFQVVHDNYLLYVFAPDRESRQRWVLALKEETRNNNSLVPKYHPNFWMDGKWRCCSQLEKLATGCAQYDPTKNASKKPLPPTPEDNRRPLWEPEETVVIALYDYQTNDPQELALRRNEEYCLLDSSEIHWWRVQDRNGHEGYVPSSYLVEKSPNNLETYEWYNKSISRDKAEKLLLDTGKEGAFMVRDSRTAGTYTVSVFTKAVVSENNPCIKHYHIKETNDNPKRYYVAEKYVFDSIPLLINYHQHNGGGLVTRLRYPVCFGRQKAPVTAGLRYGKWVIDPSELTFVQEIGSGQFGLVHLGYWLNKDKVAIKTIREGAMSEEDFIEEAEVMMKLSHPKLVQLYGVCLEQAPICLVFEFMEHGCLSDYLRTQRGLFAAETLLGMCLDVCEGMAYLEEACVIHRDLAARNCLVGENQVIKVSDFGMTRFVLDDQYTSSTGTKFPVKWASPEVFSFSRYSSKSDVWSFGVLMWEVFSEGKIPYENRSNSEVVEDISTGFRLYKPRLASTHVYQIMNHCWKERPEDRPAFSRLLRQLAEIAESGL
# Method: as §1
# [4] = target: LCK (Homo sapiens, UniProt P06239); assay: Inhibition of a panel of kinases, in vitro HotSpot kinase assay: LCK; details: D-compounds panel data; 1 μM ATP; read-out: IC50 LCK
# Sequence of LCK (P06239 whole entry): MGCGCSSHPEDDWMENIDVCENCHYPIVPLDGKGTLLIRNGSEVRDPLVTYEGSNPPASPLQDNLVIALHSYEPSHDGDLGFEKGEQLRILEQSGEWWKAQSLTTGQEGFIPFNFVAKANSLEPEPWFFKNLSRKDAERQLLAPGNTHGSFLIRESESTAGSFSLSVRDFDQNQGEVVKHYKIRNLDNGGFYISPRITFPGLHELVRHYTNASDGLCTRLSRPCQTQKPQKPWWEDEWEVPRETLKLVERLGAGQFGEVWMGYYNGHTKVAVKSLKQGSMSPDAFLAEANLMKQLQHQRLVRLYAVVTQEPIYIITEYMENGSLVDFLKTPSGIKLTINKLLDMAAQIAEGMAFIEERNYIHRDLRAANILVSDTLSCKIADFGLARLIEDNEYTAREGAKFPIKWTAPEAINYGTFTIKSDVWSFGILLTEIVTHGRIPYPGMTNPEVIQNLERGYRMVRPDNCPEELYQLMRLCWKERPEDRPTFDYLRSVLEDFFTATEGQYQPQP
# [5] = target: T3, BTK-WT (Homo sapiens, UniProt Q06187); assay: Btk in vitro inhibitory activity (one of Method A TR-FRET, Method B electrophoretic mobility shift, Method C radiometric filter binding); details: D-compounds panel data; read-out: IC50 BTK-WT
# T3 construct: purified from insect cells as a full-length construct containing an N-terminal 6X-His tag; His6 (N); made in house; host or cells: insect cells (baculovirus Sf21 in Method B)
# T3 sequence (Q06187 whole entry): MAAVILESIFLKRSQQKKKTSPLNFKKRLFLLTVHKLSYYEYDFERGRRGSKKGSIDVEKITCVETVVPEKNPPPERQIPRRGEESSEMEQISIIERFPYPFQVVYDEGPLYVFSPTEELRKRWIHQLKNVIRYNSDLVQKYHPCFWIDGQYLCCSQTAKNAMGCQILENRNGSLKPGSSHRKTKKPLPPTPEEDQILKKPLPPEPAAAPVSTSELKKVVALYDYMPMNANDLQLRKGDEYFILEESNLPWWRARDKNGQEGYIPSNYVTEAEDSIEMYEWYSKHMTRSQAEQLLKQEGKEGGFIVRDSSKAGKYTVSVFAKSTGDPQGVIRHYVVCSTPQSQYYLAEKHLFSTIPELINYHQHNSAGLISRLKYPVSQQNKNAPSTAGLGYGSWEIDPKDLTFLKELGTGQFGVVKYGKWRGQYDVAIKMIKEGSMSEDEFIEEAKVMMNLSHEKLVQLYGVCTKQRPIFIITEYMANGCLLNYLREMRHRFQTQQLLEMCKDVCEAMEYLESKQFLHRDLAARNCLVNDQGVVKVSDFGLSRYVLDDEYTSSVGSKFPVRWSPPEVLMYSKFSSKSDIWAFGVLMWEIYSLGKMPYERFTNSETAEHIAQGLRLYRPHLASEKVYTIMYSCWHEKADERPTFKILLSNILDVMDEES
# Sequence of EGFR (P00533 25-1210): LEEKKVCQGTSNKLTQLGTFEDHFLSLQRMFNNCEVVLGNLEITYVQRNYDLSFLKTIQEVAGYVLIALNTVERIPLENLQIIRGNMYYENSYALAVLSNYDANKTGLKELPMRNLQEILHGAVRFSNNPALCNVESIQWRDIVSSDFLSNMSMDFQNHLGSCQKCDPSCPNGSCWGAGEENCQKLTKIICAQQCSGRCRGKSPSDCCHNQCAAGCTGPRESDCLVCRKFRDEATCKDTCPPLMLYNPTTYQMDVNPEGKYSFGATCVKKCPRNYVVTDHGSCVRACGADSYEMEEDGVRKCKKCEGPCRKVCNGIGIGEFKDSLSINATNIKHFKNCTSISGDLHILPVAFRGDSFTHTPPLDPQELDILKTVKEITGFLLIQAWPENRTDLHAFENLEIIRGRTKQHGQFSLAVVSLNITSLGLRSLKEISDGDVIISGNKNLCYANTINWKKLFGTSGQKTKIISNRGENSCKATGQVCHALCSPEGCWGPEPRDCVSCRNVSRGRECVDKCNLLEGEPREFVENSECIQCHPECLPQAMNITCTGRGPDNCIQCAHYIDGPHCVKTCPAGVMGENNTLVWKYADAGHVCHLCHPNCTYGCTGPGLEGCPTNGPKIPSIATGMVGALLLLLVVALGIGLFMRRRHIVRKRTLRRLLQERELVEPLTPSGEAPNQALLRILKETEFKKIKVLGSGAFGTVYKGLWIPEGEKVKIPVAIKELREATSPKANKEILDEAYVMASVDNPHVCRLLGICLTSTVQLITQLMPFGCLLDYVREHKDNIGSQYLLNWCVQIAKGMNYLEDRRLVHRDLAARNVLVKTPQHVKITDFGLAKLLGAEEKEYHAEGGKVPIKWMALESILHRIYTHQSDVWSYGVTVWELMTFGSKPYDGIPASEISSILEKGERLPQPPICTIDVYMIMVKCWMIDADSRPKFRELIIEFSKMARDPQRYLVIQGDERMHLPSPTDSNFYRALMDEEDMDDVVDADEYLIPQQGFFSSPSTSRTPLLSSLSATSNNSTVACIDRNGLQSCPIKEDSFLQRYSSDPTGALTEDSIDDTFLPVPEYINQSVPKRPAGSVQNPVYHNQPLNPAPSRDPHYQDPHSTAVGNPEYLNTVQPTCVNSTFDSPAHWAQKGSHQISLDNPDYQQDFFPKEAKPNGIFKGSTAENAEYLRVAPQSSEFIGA
Structure (SMILES),IC50 [1] [nM],IC50 [2] [nM],IC50 [3] [nM],IC50 [4] [nM],IC50 [5] [nM]
"Cn1cc(Nc2nc(N3CCC[C@@H](n4ccc5cc(C6CC6)ccc5c4=O)C3)nnc2C(N)=O)cn1 [Example D-206, 3-[(3R)-3-(6-cyclopropyl-1-oxo-1,2-dihydroisoquinolin-2-yl)piperidin-1-yl]-5-[(1-methyl-1H-pyrazol-4-yl)amino]-1,2,4-triazine-6-carboxamide]",1000 to 10000,≤ 10,100 to 1000,10 to 100,≤ 10
"C[C@@H]1[C@H](NC(=O)c2cnc(C(C)(C)C)s2)CCCN1c1cnc(C(N)=O)c(Nc2cnn(C)c2)n1 [Example D-239, 5-[(2R,3R)-3-(2-tert-butyl-1,3-thiazole-5-amido)-2-methylpiperidin-1-yl]-3-[(1-methyl-1H-pyrazol-4-yl)amino]pyrazine-2-carboxamide]",100 to 1000,≤ 10,100 to 1000,10 to 100,≤ 10
"Cn1cc(Nc2nc(N3CC(NC(=O)c4ccc(C5CC5)cc4)CC(F)(F)C3)cnc2C(N)=O)cn1 (stereo in doubt) [Example D-190, 5-[(5S)-5-(4-cyclopropylbenzamido)-3,3-difluoropiperidin-1-yl]-3-[(1-methyl-1H-pyrazol-4-yl)amino]pyrazine-2-carboxamide]",1000 to 10000,100 to 1000,1000 to 10000,100 to 1000,≤ 10
"Cn1cc(Nc2nc(N3CCC(F)(F)[C@@H](NC(=O)c4ccc(C5CC5)cc4)C3)cnc2C(N)=O)cn1 [Example D-193, 5-[(3S)-3-(4-cyclopropylbenzamido)-4,4-difluoropiperidin-1-yl]-3-[(1-methylpyrazol-4-yl)amino]pyrazine-2-carboxamide]",> 10000,100 to 1000,> 10000,> 10000,10 to 100
"C[C@@H]1[C@H](NC(=O)c2ccc(N(C)C)cc2)CCCN1c1cnc(C(N)=O)c(Nc2ccc(N3CCN(C)CC3)cc2)n1 [Example D-196, 5-[(2R,3R)-3-[4-(dimethylamino)benzamido]-2-methylpiperidin-1-yl]-3-{[4-(4-methylpiperazin-1-yl)phenyl]amino}pyrazine-2-carboxamide]",100 to 1000,10 to 100,10 to 100,10 to 100,≤ 10
"C[C@@H]1[C@H](NC(=O)c2ccc(C3CC3)cc2Cl)CCCN1c1cnc(C(N)=O)c(Nc2ccc(N3CCN(C)CC3)cc2)n1 [Example D-16, 5-[(2R,3R)-3-(2-chloro-4-cyclopropylbenzamido)-2-methylpiperidin-1-yl]-3-{[4-(4-methylpiperazin-1-yl)phenyl]amino}pyrazine-2-carboxamide]",100 to 1000,10 to 100,100 to 1000,10 to 100,≤ 10
"C[C@@H]1[C@H](NC(=O)c2ccc(SC(F)(F)F)cc2)CCCN1c1cnc(C(N)=O)c(Nc2cnn(C)c2)n1 [Example D-241, 3-[(1-methyl-1H-pyrazol-4-yl)amino]-5-[(2R,3R)-2-methyl-3-{4-[(trifluoromethyl)sulfanyl]benzamido}piperidin-1-yl]pyrazine-2-carboxamide]",100 to 1000,10 to 100,1000 to 10000,100 to 1000,≤ 10
"Cn1cc(Nc2nc(N3C4CCC(NC(=O)c5ccc(C6CC6)cc5)C3CC4)cnc2C(N)=O)cn1 (single isomer, unassigned) [Example D-202, 5-[2-(4-cyclopropylbenzamido)-8-azabicyclo[3.2. I]octan-8-yl]-3-[(1-methyl-1H-pyrazol-4-yl)amino]pyrazine-2-carboxamide]",> 10000,100 to 1000,1000 to 10000,10 to 100,10 to 100
"C[C@@H]1[C@H](NC(=O)c2ccc(OC3CC3)cc2)CCCN1c1cnc(C(N)=O)c(Nc2cnn(C)c2)n1 [Example D-219, 5-[(2R,3R)-3-(4-cyclopropoxybenzamido)-2-methylpiperidin-1-yl]-3-[(1-methyl-1H-pyrazol-4-yl)amino]pyrazine-2-carboxamide]",1000 to 10000,≤ 10,100 to 1000,10 to 100,≤ 10
"C[C@@H]1[C@H](NC(=O)c2ccc(C3CC3)cc2)CCCN1c1cnc(C(N)=O)c(Nc2cnn(CC(C)(C)O)c2)n1 [Example D-215, 5-[(2R,3R)-3-(4-cyclopropylbenzamido)-2-methylpiperidin-1-yl]-3-{[1-(2-hydroxy-2-methylpropyl)-1H-pyrazol-4-yl]amino}pyrazine-2-carboxamide]",> 10000,100 to 1000,1000 to 10000,1000 to 10000,≤ 10

# Further lines, results first:
IC50 [1] [nM],IC50 [2] [nM],IC50 [3] [nM],IC50 [4] [nM],IC50 [5] [nM],Structure (SMILES)
100 to 1000,10 to 100,10 to 100,10 to 100,≤ 10,"Cc1cc(Nc2nc(N3CCC[C@@H](NC(=O)N4Cc5ccccc5C4=O)C3)cnc2C(N)=O)sn1 [Example D-15, N-[(3R)-1-{5-carbamoyl-6-[(3-methyl-1,2-thiazol-5-yl)amino]pyrazin-2-yl}piperidin-3-yl]-1-oxo-2,3-dihydro-1H-isoindole-2-carboxamide]"
> 10000,100 to 1000,> 10000,100 to 1000,10 to 100,"Cc1cc(Nc2nc(N3CCC[C@@H](c4ncc(-c5ccccc5)[nH]4)C3)cnc2C(N)=O)sn1 [Example D-171, 3-[(3-methyl-1,2-thiazol-5-yl)amino]-5-[(3R)-3-(5-phenyl-1H-imidazol-2-yl)piperidin-1-yl]pyrazine-2-carboxamide]"
100 to 1000,≤ 10,10 to 100,10 to 100,≤ 10,"C[C@@H]1[C@H](NC(=O)c2ccc3scnc3c2)CCCN1c1cnc(C(N)=O)c(Nc2ccc(N3CCN(C)CC3)cc2)n1 [Example D-226, N-[(2R,3R)-1-(5-carbamoyl-6-{[4-(4-methylpiperazin-1-yl)phenyl]amino}pyrazin-2-yl)-2-methylpiperidin-3-yl]-1,3-benzothiazole-5-carboxamide]"
1000 to 10000,≤ 10,100 to 1000,10 to 100,≤ 10,"Cc1ccc(C(=O)N[C@@H]2CCCN(c3cnc(C(N)=O)c(Nc4cnn(C)c4)n3)[C@@H]2C)cc1 [Example D-232, 3-[(1-methyl-1H-pyrazol-4-yl)amino]-5-[(2R,3R)-2-methyl-3-(4-methylbenzamido)piperidin-1-yl]pyrazine-2-carboxamide]"
1000 to 10000,≤ 10,100 to 1000,100 to 1000,≤ 10,"Cn1cc(Nc2nc(N3CCC[C@@H](n4ccc5cc(C6CC6)ncc5c4=O)C3)cnc2C(N)=O)cn1 [Example D-225, 5-[(3R)-3-(6-cyclopropyl-1-oxo-1,2-dihydro-2,7-naphthyridin-2-yl)piperidin-1-yl]-3-[(1-methyl-1H-pyrazol-4-yl)amino]pyrazine-2-carboxamide]"
1000 to 10000,10 to 100,100 to 1000,100 to 1000,≤ 10,"C[C@@H]1[C@H](NC(=O)c2ccc(C(C)(C)C)cn2)CCCN1c1cnc(C(N)=O)c(Nc2cnn(C)c2)n1 [Example D-208, 5-[(2R,3R)-3-(5-tert-butylpyridine-2-amido)-2-methylpiperidin-1-yl]-3-[(1-methyl-1H-pyrazol-4-yl)amino]pyrazine-2-carboxamide]"
100 to 1000,≤ 10,100 to 1000,100 to 1000,≤ 10,"C[C@@H]1[C@H](NC(=O)c2ccc3c(c2)OCCO3)CCCN1c1cnc(C(N)=O)c(Nc2cnn(C)c2)n1 [Example D-224, 5-[(2R,3R)-3-(2,3-dihydro-1,4-benzodioxine-6-amido)-2-methylpiperidin-1-yl]-3-[(1-methyl-1H-pyrazol-4-yl)amino]pyrazine-2-carboxamide]"
